From patent publication US8980575B2, “Process to avoid inhibition of acetogens by CO” (Ineos Bio SA, priority 2012, dated 2015)

Key:
Clostridium ljungdahlii [1] = assay: Fermentation with high CO feed-gas, head-space CO partial pressure control (Example 1); format: cell-based; conditions: 95% CO/5% N2 feed gas, head-space CO controlled; inoculum 1.28 g/l; within 41.4 hours after inoculation
Description: (§1) New Brunswick and CelliGen 310 bioreactors containing modified 1× ethanol medium were inoculated with 1.28 g/l of actively growing (in syngas) Clostridium ljungdahlii. Before inoculation, the rate of agitation of the reactor was set to 800 rpm. Gas and liquid samples taken from the reactor at every 1 to 4 hour intervals were analyzed for consumption or production of various gas components, broth acetic acid concentration, broth ethanol concentration and the optical density of the culture. Also the composition of the feed-gas was measured daily and the flow to the reactor was measured real time by the mass flow controller regulating feed-gas to the reactor. High CO composition feed gas of 95% CO/5% N2 was utilized.
The following method was used to regulate rate of gas supply to the reactor: X=(head space CO %/100)×(measured reactor pressure(psig)+atmospheric pressure/atmospheric pressure(14.7))
if x is 0.08 or below gas flow to the reactor was increased by 7.6% of the current mole value of gas flow rate to the reactor
if X is 0.12 or higher gas flow to the reactor was decreased by 7.6% of the current mole value of gas flow rate to the reactor
(§2) A Shimadzu GC-2014 gas chromatograph was used to measure the broth ethanol and acetic acid concentrations. SRI 8610c gas chromatograph was used to measure the components of the feed-gas.

[2] = system: Butyribacterium methylotrophicum; assay: Fermentation with high CO feed-gas, head-space CO partial pressure control (Example 2); format: cell-based; conditions: 95% CO/5% N2 feed gas, head-space CO controlled; inoculum 0.92 g/l; within 68 hours after inoculation
Description: as §1, with “reactor” for “bioreactors”, “0.92” for “1.28”, “Butyribacterium methylotrophicum.” for “Clostridium ljungdahlii.”
The method described in Example 1 was used to regulate the rate of gas supply to the reactor.
as §2

Clostridium ljungdahlii [3] = assay: Fermentation with low CO feed-gas (Example 3); format: cell-based; conditions: 9.5% CO/90.5% N2 feed gas, 534 ml/min; inoculum 0.38 g/l; within 90.6 hours after inoculation
Description: as §1, with “CelliGen 310 reactor containing modified” for “CelliGen 310 bioreactors containing modified”, “inoculated with 0.38 g/l of” for “inoculated with 1.28 g/l of”, “was measured in real time” for “was measured real time”, “the reactor.” for “the reactor. High CO composition feed gas of 95% CO/5% N2 was utilized.”
(§3) A CO composition feed gas of 9.5% CO/90.5% N2 was utilized and the flow was set to 534 ml/min. All through out the experiment the rate of feed gas to the reactor was not adjusted.
The method was utilized to keep the dissolved CO in the culture broth below 0.12 mmol/L at around 37 to 38° C. According to the Henry's Law, the maximum dissolved CO concentration that can be obtained by feeding a gas containing 9.5% is 0.079 mmol.
as §2

[4] = system: Butyribacterium methylotrophicum; assay: Fermentation with low CO feed-gas (Example 4); format: cell-based; conditions: 9.5% CO/90.5% N2 feed gas, 534 ml/min; inoculum 0.86 g/l; within 44.4 hours after inoculation
Description: as §1, with “310 reactor” for “310 bioreactors”, “medium was” for “medium were”, “with 0.86” for “with 1.28”, “(in 5% CO/95% N2) Butyribacterium methylotrophicum. At the start of the experiment” for “(in syngas) Clostridium ljungdahlii. Before inoculation,”, “reactor.” for “reactor. High CO composition feed gas of 95% CO/5% N2 was utilized.”
as §3
This method was utilized to keep the dissolved CO in the culture broth below 0.12 mmol/l at around 37 to 38° C. According to the Henry's law the maximum dissolved CO concentration that can be obtained by feeding a gas containing 9.5% is 0.079 mmol.
as §2

Clostridium ljungdahlii [5] = assay: Effect of CO feed rates on CO conversion (Example 5); format: cell-based
Description: Clostridium ljungdahlii was grown and maintained using only CO and N2 (feed gas) in a bioreactor (New Brunswick BioFlo I or IIc). During the experiment, rate of feed gas was altered to obtain desired culture conversions. Lower culture conversions were employed to provide excess dissolved CO to Clostridium ljungdahlii.
Low culture conversions of CO was used as s method to provide excess dissolved CO to the culture. For example, when a culture in a reactor can convert X amount of CO at a given agitation and at a given flow rate, the dissolved CO can be increased by increasing the flow rate so that culture conversions go below X.

Clostridium ljungdahlii [6] = assay: Inhibitory CO feed rates, four stage protocol (Example 6); format: cell-based; conditions: for CRT Average (cell retention time): from 18 hours after beginning to end of stage
Description: Clostridium ljungdahlii was grown in a bioreactor (New Brunswick BioFlo I or IIc).
To achieve a conductivity of 9 mS/cm, a medium was made using 1.5× of all components except for vitamins. A four stage protocol was used as follows:
Stage 1: A culture was grown up in a 2 L bioreactor using syngas. With a cell density of 2.9 g/L, the gas source was switched from syngas mixture to a CO/N2 mixture containing 95% CO and 5% N2.
Stage 2: At T=26 hrs, a CO conversion target was set at >90%.
Stage 3: At T=70 hrs, the CO conversion target was decreased from 90% to 85%.
Stage 4: At T=97 hrs, the CO conversion target was decreased from 85% to 80%.
Dissolved CO was calculated for each gas sample using representative KLa values for a particular gas flow rate. These values were then averaged to find a representative value for each stage. Pictures were taken throughout the experiment in order to qualitatively study the morphology change over time.
Average cell retention time (CRT) was calculated for the period of 18 hours after the beginning of each stage to the end of each stage.

Clostridium ljungdahlii [7] = assay: Effect of CO concentration on growth, bioreactor runs (Example 7); format: cell-based; conditions: for bacterial cell density over time: inoculum 3.8 g/L
Description: Clostridium ljungdahlii was grown in a bioreactor (New Brunswick BioFlo I or IIc). The following adjustments were made:
Conductivity of the culture was adjusted by adjusting the strength of the growth medium, for example concentration of all the components, except vitamin in the growth medium was increased by 1.5 times to increase the conductivity of the culture from approximately 7 mS to approximately 9.5 mS. […]
Initial gas flow rate of each experiment was kept unchanged throughout the experiment. Reactor parameters, when CO conversion values reach a plateau after a successful start-up, were used to calculate KLa for relevant conditions.
Syngas composition was 30% CO, 15% H2, 10% CO2 and 45% N2.

[8] = Dissolved CO by Henry's law calculation; format: physicochemical; conditions: feeding a gas containing 9.5% CO, 37 to 38° C.
Description: In order to calculate dissolved CO, the mass transfer coefficient (KLa) of the system needs to be determined. KLa value will depend on various factors, such as architecture of the reactor, superficial gas flow rate, un-aroused volume, temperature and agitation power. Therefore KLa values vary from reactor conditions to condition.
Henry's law:P=KHC • Henry's constant=KH=p/c (L(psi)/mol) • at 38° C., KH=17640 (L(psi)/mol)
In a CSTR containing CO consuming bacteria, the following equation may be used to estimate dissolved CO. • KLa((PCO(head space)/KH)−(PCO(liquid)/KH))=COU • COU=carbon monoxide uptake (mol/L/min) • KLa=mass transfer coefficient (min^−1) • (PCO(liquid)/KH)=dissolved CO (mol/L)
When dissolved CO=0 • KLa=COU/(PCO(head space)/KH) • KLa((PCO(head space)/KH)−(PCO(liquid)/KH))=COU • KH=L(psi)/mol

[9] = at 38° C.; cited from earlier work
[10] = Stage 2, average dissolved CO 0.04 mmol
[11] = Stage 3, average dissolved CO 0.12 mmol
[12] = Stage 4, average dissolved CO 0.29 mmol
[13] = Run #2: 1× growth medium, 35 ml/min syngas
[14] = Run #3: 1× growth medium, 40 ml/min syngas
[15] = Run #4: 1× growth medium, 45 ml/min syngas
[16] = Run #10: 1.5× growth medium, 20 ml/min syngas

Compound: [C-]#[O+] [CO, carbon monoxide]
- cell mass (Clostridium ljungdahlii [1]): 8.24 g/L
- cell mass [2]: 7.88 g/L
- cell mass (Clostridium ljungdahlii [3]): 6.21 g/L
- cell mass [4]: 3.32 g/L
- ethanol production, cell mass and morphology after recovery (Clostridium ljungdahlii [5]; CO conversions returned to approximately 80%): returned to healthy culture levels
- signs of inhibition (ethanol and acetic acid production, SCU, cell mass, cell morphology) (Clostridium ljungdahlii [5]; at approximately 80% CO conversions): didn't show signs of inhibition
- inhibition of culture (Clostridium ljungdahlii [5]; feed gas increased to maintain CO conversions below approximately 70%): inhibited
- SCU Average (specific CO uptake) (Clostridium ljungdahlii [6]; [10]): 0.581 mmol/g/min
- CRT Average (cell retention time) (Clostridium ljungdahlii [6]; [10]): 23.74 h
- SCU Average (specific CO uptake) (Clostridium ljungdahlii [6]; [11]): 0.559 mmol/g/min
- CRT Average (cell retention time) (Clostridium ljungdahlii [6]; [11]): 31.89 h
- SCU Average (specific CO uptake) (Clostridium ljungdahlii [6]; [12]): 0.360 mmol/g/min
- CRT Average (cell retention time) (Clostridium ljungdahlii [6]; [12]): 75.92 h
- dissolved CO at which specific CO uptake proceeded on a downward trend (Clostridium ljungdahlii [6]; Stage 4, conversions coming down to 80%): around 0.2 mmol
- doubling time (Clostridium ljungdahlii [7]; Run #1: 1× growth medium, 25 ml/min syngas): about 20 hours
- initial lag period (Clostridium ljungdahlii [7]; Run #1: 1× growth medium, 25 ml/min syngas (30% CO)): about 20 hours
- doubling time (Clostridium ljungdahlii [7]; [13]): about 20 hours
- initial lag period (Clostridium ljungdahlii [7]; [13]): about 36 hours
- cell morphology (Clostridium ljungdahlii [7]; Run #2: 35 ml/min syngas, at about 51 hours after inoculation): elongated and curved
- doubling time (Clostridium ljungdahlii [7]; [14]): about 20 hours
- initial lag period (Clostridium ljungdahlii [7]; [14]): about 45 hours
- cell morphology (Clostridium ljungdahlii [7]; Run #3: 40 ml/min syngas, at about 51 hours after inoculation): elongated and curved
- doubling time (Clostridium ljungdahlii [7]; [15]): about 20 hours
- initial lag period (Clostridium ljungdahlii [7]; [15]): about 50 hours
- cell morphology (Clostridium ljungdahlii [7]; Run #4: 45 ml/min syngas, at about 55 hours after inoculation): elongated and curved
- lag period (culture continued to lag) (Clostridium ljungdahlii [7]; Run #5: 1× growth medium, 50 ml/min syngas): > 70 h
- doubling time (Clostridium ljungdahlii [7]; Run #6: 1× growth medium, 50 ml/min syngas, higher inoculum): about 20 hours
- initial lag period (Clostridium ljungdahlii [7]; Run #6: 1× growth medium, 50 ml/min syngas, higher inoculum (4.8 vs 3.8 g/L cells)): about 10 hours
- cell morphology (Clostridium ljungdahlii [7]; Run #6: 50 ml/min syngas, higher inoculum, at about 20 hours after inoculation): short and consistent in nature
- bacterial cell density over time (Clostridium ljungdahlii [7]; Run #7: 1.5× growth medium, 45 ml/min syngas): went down with time
- bacterial cell density over time (Clostridium ljungdahlii [7]; Run #8: 1.5× growth medium, 35 ml/min syngas): went down with time
- bacterial cell density over time (Clostridium ljungdahlii [7]; Run #9: 1.5× growth medium, 30 ml/min syngas): went down with time
- doubling time (Clostridium ljungdahlii [7]; [16]): 20 h
- bacterial cell density over time (Clostridium ljungdahlii [7]; [16]): went up with time
- maximum dissolved CO concentration according to Henry's Law [8]: 0.079 mmol
- Henry's constant KH [9]: 17640 L(psi)/mol
